Results as given in patent US20110230428A1, “CERTAIN KYNURENINE-3-MONOOXYGENASE INHIBITORS, PHARMACEUTICAL COMPOSITIONS, AND METHODS OF USE THEREOF” (priority 2008, published 2011).
Structures can show the parent of a compound that is named as a salt.

Biological target: T1, KMO mouse enzyme (Mus musculus, UniProt Q91WN4)
T1 construct: KMO enzyme prepared at Evotec from mouse liver (4-6 weeks old) via mitochondria isolation; from tissue; host or cells: mouse liver (4-6 weeks old), isolated mitochondria
T1 sequence (Q91WN4 whole entry): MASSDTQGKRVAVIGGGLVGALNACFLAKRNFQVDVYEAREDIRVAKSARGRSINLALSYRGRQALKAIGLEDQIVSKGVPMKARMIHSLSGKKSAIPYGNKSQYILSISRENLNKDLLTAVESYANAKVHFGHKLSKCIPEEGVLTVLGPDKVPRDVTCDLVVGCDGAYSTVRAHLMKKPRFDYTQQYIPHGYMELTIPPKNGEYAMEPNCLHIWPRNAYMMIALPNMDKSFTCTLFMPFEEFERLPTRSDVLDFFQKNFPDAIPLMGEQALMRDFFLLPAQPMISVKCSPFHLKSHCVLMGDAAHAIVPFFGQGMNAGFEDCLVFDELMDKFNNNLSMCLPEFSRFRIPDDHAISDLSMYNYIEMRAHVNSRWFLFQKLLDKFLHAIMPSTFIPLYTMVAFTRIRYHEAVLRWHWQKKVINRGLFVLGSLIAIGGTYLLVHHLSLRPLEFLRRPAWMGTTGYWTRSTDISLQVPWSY
Experiment: KMO mouse enzyme assay: L-Kynurenine hydroxylation to 3OH-KYN by LC/MS
Assay type: biochemical
Details: compound at 10 μM; KMO from mouse liver mitochondria; read-out: INH.Mouse @ 10 μM
Description: A method of monitoring L-Kynurenine (KYN) hydroxylation to form 3-Hydroxy-Kynurenine (3OH-KYN) by LC/MS is described. Product is quantified by multiple reaction monitoring (MRM method).
• Compound: Stock concentrations: 10 mM in 100% DMSO • Enzyme: KMO enzyme prepared at Evotec from mouse liver (4-6 weeks old) via mitochondria isolation as described in the literature • Substrate: L-Kynurenine (Sigma: Cat# K3750, stock concentration: 10 mM in 100 mM potassium phosphate buffer, pH 7.4)
• Buffer: 100 mM potassium phosphate, pH 7.4, 200 μM NADPH, 0.4 U/ml G6P-DH (Glucose 6-phosphate Dehydrogenase), 3 mM G6P (D-Glucose 6-phosphate) • Assay Volume: 40 μl • Plate Format: 384 well plate, transparent (Matrix) • Read-Out: product (3OH-KYN) quantification using product specific MRM • Reader: LC/MS/MS
• prepare serial dilution (factor 3) of compound in 100% DMSO (top concentration=10 mM, 100% DMSO) • [8 points: 10 mM; 3.33 mM; 1.11 mM; 0.37 mM; 0.12 mM; 0.04 mM; 0.0137 mM; 0.0045 mM, 0.0015 mM] • prepare […] solution of each compound concentration (top concentration 300 μM, 3% DMSO) in assay buffer • [concentrations: 300 μM; 100 μM; 33.3 μM; 11.1 μM; 3.70 μM; 1.23 μM; 0.41 μM; 0.137 μM] • prepare substrate (10 mM) at concentration of 1 mM in assay buffer • assay mix: 4 μl compound/well of each concentration+24 μl assaybuffer/well+8 μl KMO mouse enzyme+4 μl 1 mM substrate (final concentration=100 μM) • [final compound top concentration: 30 μM; 0.3% DMSO] • [final compound bottom concentration: 0.0137 μM; 0.3% DMSO] • positive control: 4 μl 50 μM FCE28833 in assay buffer, 0.5% DMSO [final assay concentration=5 μM]+24 μl assaybuffer/well+8 μl KMO mouse enzyme+4 μl 1 mM substrate [final concentration=100 μM] • negative control: 28 μl assay buffer/well+8 μl KMO mouse enzyme+4 μl 1 mM substrate [final concentration=100 μM] • incubate 40 min at RT • add 40 μl/well 10% trichloro acetic acid in water to stop the assay and precipitate protein • centrifuge plate for 3 min at 4000 rpm • product detection by LC/MS (injection of 20 μl/well, 2 fold overfill of the 10 μl sample loop) Data analysis: IC50's are calculated using automated fitting algorithm (A+Analysis).
Using procedures similar to those described herein, the following compounds were assayed for activity.

Structure (SMILES)	inhibition at 10 µM [%]
CCO/N=C(\CCC(=O)O)c1ccc(Cl)c(Cl)c1 [4-(3,4-Dichloro-phenyl)-4-ethoxyimino-butyric acid]	107
NCCON=C(CCC(=O)O)c1ccc(Cl)c(Cl)c1 [4-[2-Amino-ethoxyimino]-4-(3,4-dichloro-phenyl)-butyric acid trifluoroacetic acid salt]	49.5
CO/N=C(\CCC(=O)O)c1ccc(Cl)c(Cl)c1 [4-(3,4-Dichloro-phenyl)-4-methoxyimino-butyric acid]	106
CON=C(CCC(=O)Nc1ncc(C)nc1C)c1ccc(Cl)c(Cl)c1 [4-(3,4-Dichloro-phenyl)-N-(3,5-dimethyl-pyrazin-2-yl)-4-methoxyimino-butyramide]	101
CO/N=C(\CCC(=O)OC1CCOCC1)c1ccc(Cl)c(Cl)c1 [4-(3,4-Dichloro-phenyl)-4-methoxyimino-butyric acid tetrahydro-pyran-4-yl ester]	102
CON=C(CCC(=O)N1CCCCC1)c1ccc(Cl)c(Cl)c1 [1-(3,4-Dichloro-phenyl)-4-piperidin-1-yl-butane-1,4-dione 1-(O-methyl-oxime)]	60.4
CON=C(CCC(=O)NCC(O)CO)c1ccc(Cl)c(Cl)c1 (centres unmarked) [4-(3,4-Dichloro-phenyl)-N-(2,3-dihydroxy-propyl)-4-methoxyimino-butyramide]	75.7
CO/N=C(\CCC(=O)N(C)C)c1ccc(Cl)c(Cl)c1 [4-(3,4-Dichloro-phenyl)-4-methoxyimino-N,N-dimethyl-butyramide]	64.3
CON=C(CCC(=O)Nc1ccccc1)c1ccc(Cl)c(Cl)c1 [4-(3,4-Dichloro-phenyl)-4-methoxyimino-N-phenyl-butyramide]	103
CON=C(CCC(=O)Nc1cccnc1)c1ccc(Cl)c(Cl)c1 [4-(3,4-Dichloro-phenyl)-4-methoxyimino-N-pyridin-3-yl-butyramide]	103
CO/N=C(\CCC(=O)NC(C)C)c1ccc(Cl)c(Cl)c1 [4-(3,4-Dichloro-phenyl)-N-isopropyl-4-methoxyimino-butyramide]	94.3
CON=C(CCC(=O)NCC(C)O)c1ccc(Cl)c(Cl)c1 (centres unmarked) [4-(3,4-Dichloro-phenyl)-N-(2-hydroxy-propyl)-4-methoxyimino-butyramide]	98.8
CO/N=C(\CCC(=O)Nc1ccccn1)c1ccc(Cl)c(Cl)c1 [4-(3,4-Dichloro-phenyl)-4-methoxyimino-N-pyridin-2-yl-butyramide]	104
CO/N=C(\CCC(=O)O)c1cc(Cl)cc(Cl)c1 [4-(3,5-Dichloro-phenyl)-4-methoxyimino-butyric acid]	98.7
CON=C(CCC(=O)NCc1cccnc1)c1ccc(Cl)c(Cl)c1 [4-(3,4-Dichloro-phenyl)-4-methoxyimino-N-pyridin-3-ylmethyl-butyramide]	77.1
CON=C(CCC#N)c1ccc(Cl)c(Cl)c1 [4-(3,4-Dichloro-phenyl)-4-methoxyimino-butyronitrile]	74.6
CON=C(CCC(=O)O)c1cccc(Cl)c1 [4-(3-Chloro-phenyl)-4-methoxyimino-butyric acid]	101
CON=C(c1ccc(Cl)c(Cl)c1)[C@H]1C[C@@H]1C(=O)O [(1S,2S)-trans-2-[(3,4-Dichloro-phenyl)-methoxyimino-methyl]-cyclopropanecarboxylic acid]	81.2
CON=C(CCC(=O)Nc1ccc(C)nc1C)c1ccc(Cl)c(Cl)c1 [4-(3,4-Dichloro-phenyl)-N-(2,6-dimethyl-pyridin-3-yl)-4-methoxyimino-butyramide]	93
CON=C(CCC(=O)Nc1cncc(C)c1)c1ccc(Cl)c(Cl)c1 [4-(3,4-Dichloro-phenyl)-4-methoxyimino-N-(5-methyl-pyridin-3-yl)-butyramide]	102
CON=C(CCC(=O)Nc1ncccn1)c1ccc(Cl)c(Cl)c1 [4-(3,4-Dichloro-phenyl)-4-methoxyimino-N-pyrimidin-2-yl-butyramide]	101
CO/N=C(\CCC(=O)NC1CCN(C(=O)OC(C)(C)C)CC1)c1ccc(Cl)c(Cl)c1 [4-[4-(3,4-Dichloro-phenyl)-4-methoxyimino-butyrylamino]-piperidine-1-carboxylic acid tert-butyl ester]	75.2
CON=C(CCC(=O)Nc1c(C)cc(C)nc1C)c1ccc(Cl)c(Cl)c1 [4-(3,4-Dichloro-phenyl)-4-methoxyimino-N-(2,4,6-trimethyl-pyridin-3-yl)-butyramide]	66.3
COC(=O)CC/C(=N\OCc1ccccc1)c1ccc(Cl)c(Cl)c1 [4-Benzyloxyimino-4-(3,4-dichloro-phenyl)-butyric acid methyl ester]	66
CON=C(c1ccc(Cl)c(Cl)c1)C1C[C@@H]1C(=O)OC (stereo partly drawn) [(1S,2S)-trans-2-[(3,4-Dichloro-phenyl)-methoxyimino-methyl]-cyclopropanecarboxylic acid methyl ester]	61
CO/N=C(\CCC(=O)Oc1cccnc1)c1ccc(Cl)c(Cl)c1 [4-(3,4-Dichloro-phenyl)-4-methoxyimino-butyric acid pyridin-3-yl ester]	105
O=C(O)CC/C(=N\OCC1CC1)c1ccc(Cl)c(Cl)c1 [4-Cyclopropylmethoxyimino-4-(3,4-dichloro-phenyl)-butyric acid]	99.6
CON=C(CCC(=O)Nc1cccnn1)c1ccc(Cl)c(Cl)c1 [4-(3,4-Dichloro-phenyl)-4-methoxyimino-N-pyridazin-3-yl-butyramide]	101
CON=C(CCC(=O)N(C)c1cccnc1)c1ccc(Cl)c(Cl)c1 [4-(3,4-Dichloro-phenyl)-4-methoxyimino-N-methyl-N-pyridin-3-yl-butyramide]	62.5
